Source: patent publication US5140018A, “1,3,2-benzodithiazole-1-oxide compounds” (Abbott Laboratories, priority 1991, dated 1992)
In brackets after ≈: the same amount, converted by molar mass.

Key:
[1] = test system: Candida albicans CCH 442; assay: In vitro antifungal MIC, Candida albicans CCH 442; format: cell-based; details: Candida albicans, CCH442, 48 h
Method: (§1) The in vitro antifungal activity of the compounds of the present invention against a variety of fungiwas determined as follow: Test medium was prepared by dissolving first 5 g of dextrose and then 6.7 g of Bacto Yeast Nitrogen Base® (commercially available from Difco Laboratories) in 100 mL of distilled water. The solution was filter-sterilized and diluted 1:10 with 0.01M pH 8.0 phosphate buffer solution, and the final pH of the medium adjusted to about pH 7.0 when necessary with either 0.1N hydrochloric acid solution of 0.1N sodium hydroxide solution. […] These concentrated stock solutions were diluted to a concentration of 200 μg/mL (twice the highest concentration desired for testing) with the test medium. Amphotericin B, similarly prepared, was used as a reference antifungal agent.
(§2) The test organisms were then inoculated into test tubes containing approximately 3 to 10 mL of test medium and the test tubes incubated overnight at 37° C. A sample of each overnight culture was placed in a test tube and diluted using the test medium until a reading of 95% transmittance was obtained in a conventional UV/visible spectrophotometer set to 560 nm. The adjusted cultures were then diluted 1:50 with test medium. These diluted cultures served as the inocula for the assays which follow and were used within 15 minutes of preparation.
(§3) Next, 2-fold serial dilutions of each test compound in test medium were prepared in a 96-well microtiter plate using calibrated microdiluters attached to an automatic (hand-held) diluter (available from Dynatech Laboratories).
(§4) Using sterile calibrated droppers or a multi-point dispenser, the diluted inoculum suspension was added to each of the wells in the plate. When inoculation was complete, the microtiter tray was covered with a plastic plate sealer to minimize evaporation. After the plate had been sealed, a hole was made above each well with a sterile 26-gauge syringe needle in order to allow gas exchange. If plate sealers were not available, the microtiter trays were stacked in groups of five or less with an empty tray on top. The microtiter trays were then incubated in a humidified chamber at 35°-37° C. for 48 hours or until growth was visible in the growth control wells.
(§5) The minimum inhibitory concentration (MIC) was defined as the lowest concentration of test compound yielding no growth, a slight haze or sparsely isolated colonies on the inoculum spot as compared to the growth control containing no test compound.

[2] = test system: Candida albicans ATCC 38247; assay: In vitro antifungal MIC, Candida albicans ATCC 38247; format: cell-based; details: Candida albicans, ATCC38247, 48 h
Method: as §1, §2, §3, §4, §5

[3] = test system: Candida albicans ATCC 10231; assay: In vitro antifungal MIC, Candida albicans ATCC 10231; format: cell-based; details: Candida albicans, ATCC10231, 48 h
Method: as §1, §2, §3, §4, §5

[4] = test system: fungi; details: cited from earlier work
[5] = test system: Candida tropicalis NRRL-Y-112; assay: In vitro antifungal MIC, Candida tropicalis NRRL-Y-112; format: cell-based; details: Candida tropicalis, NRRLY112, 48 h
Method: as §1, §2, §3, §4, §5

[6] = test system: Candida kefyr ATCC 28838; assay: In vitro antifungal MIC, Candida kefyr ATCC 28838; format: cell-based; details: Kluyveromyces marxianus, ATCC28838, 48 h
Method: as §1, §2, §3, §4, §5

[7] = test system: Candida albicans ATCC 62376; assay: In vitro antifungal MIC, Candida albicans ATCC 62376; format: cell-based; details: Candida albicans, ATCC62376, 48 h
Method: as §1, §2, §3, §4, §5

[8] = in vivo; cited from earlier work
[9] = test system: Aspergillus niger ATCC 16404; assay: In vitro antifungal MIC, Aspergillus niger ATCC 16404; format: cell-based; details: Aspergillus niger, ATCC16404, 48 h
Method: as §1, §2, §3, §4, §5

[10] = test system: kidney function; details: patients treated with amphotericin B; cited from earlier work
[11] = test system: Candida albicans 579A; assay: In vitro antifungal MIC, Candida albicans 579A; format: cell-based; details: Candida albicans, 579A, 48 h
Method: as §1, §2, §3, §4, §5

[12] = test system: Cryptococcus albidus ATCC 34140; assay: In vitro antifungal MIC, Cryptococcus albidus ATCC 34140; format: cell-based; details: Naganishia albida, ATCC34140, 48 h
Method: as §1, §2, §3, §4, §5

[13] = test system: Torulopsis glabrata ATCC 15545; assay: In vitro antifungal MIC, Torulopsis glabrata ATCC 15545; format: cell-based; details: Nakaseomyces glabratus, ATCC15545, 48 h
Method: as §1, §2, §3, §4, §5

[14] = in vivo, cited from earlier work
[15] = test system: biosynthesis of testosterone; details: cited from earlier work

SMILES	MIC [1] [µg/mL]	MIC [2] [µg/mL]	MIC [3] [µg/mL]	fungistatic/fungicidal action [4]	MIC [5] [µg/mL]	MIC [6] [µg/mL]	MIC [7] [µg/mL]	mammalian toxicity [8]	untoward effects [8]	MIC [9] [µg/mL]	patients experiencing impaired kidney function [10] [%]	MIC [11] [µg/mL]	MIC [12] [µg/mL]	MIC [13] [µg/mL]	oral bioavailability ([14]; po)	hepatotoxicity [8]	inhibition of testosterone biosynthesis [15]	oral activity ([14]; po)	absorption into the cerebrospinal fluid [14]
C[C@@H]1[C@H](O)[C@@H](C)/C=C/C=C/C=C/C=C/C=C/C=C/C=C/[C@H](O[C@@H]2O[C@H](C)[C@@H](O)[C@H](N)[C@@H]2O)C[C@@H]2O[C@](O)(C[C@@H](O)C[C@@H](O)[C@H](O)CC[C@@H](O)C[C@@H](O)CC(=O)O[C@H]1C)C[C@H](O)[C@H]2C(=O)O [Amphotericin B, reference compound]	1.56 (≈ 1.69 µM)	12.5 (≈ 13.5 µM)	1.56 (≈ 1.69 µM)	fungicidal	1.56 (≈ 1.69 µM)	1.56 (≈ 1.69 µM)	1.56 (≈ 1.69 µM)	considerable	anaphylaxis, thrombocytopenia, flushing, generalized pain, convulsions, chills, fever, phlebitis, headache, anemia, anorexia and decreased kidney function	3.12 (≈ 3.38 µM)	80	1.56 (≈ 1.69 µM)	3.12 (≈ 3.38 µM)	3.12 (≈ 3.38 µM)	poor	–	–	–	–
CC(=O)N1CCN(c2ccc(OCC3COC(Cn4ccnc4)(c4ccc(Cl)cc4Cl)O3)cc2)CC1 (centres unmarked) [Ketoconazole]	–	–	–	fungistatic and not fungicidal	–	–	–	–	–	–	–	–	–	–	–	hepatotoxins	inhibitors of the biosynthesis of testosterone	orally active	poorly absorbed
